# Numbered stars: 1 amine (or outer) side, 2 acyl side, 3 side chain; on linkers, the order of the positions; unused ones are H or OH. Bridge positions count the residues as written; N and C are the ends. Square brackets hold non-standard residues; d marks the D form. Side chains are listed from the residue outwards. Peptide text beside a SMILES is read from it. * marks the point of attachment. C18 diacid = O=C(O)CCCCCCCCCCCCCCCCC(=O)*; γGlu = O=C(O)[C@H](CCC(=O)[*:2])N[*:1]; Aib = CC(C)(N)C(=O)O
# Legend:
# [1] = target: T1, rat amylin receptor (calcitonin receptor co-expressed with receptor activity modifying protein, RAMP3) (Rat AMYR3) (Rattus norvegicus, UniProt P32214+Q9JJ73); test: cAMP production in HEK cells with stable recombinant expression of rat amylin receptor (Rat AMYR3); type: cell-based; conditions: assay buffer with 0.1% BSA
# T1 construct: expressed in transfected cells
# T1 sequence (P32214 25-516): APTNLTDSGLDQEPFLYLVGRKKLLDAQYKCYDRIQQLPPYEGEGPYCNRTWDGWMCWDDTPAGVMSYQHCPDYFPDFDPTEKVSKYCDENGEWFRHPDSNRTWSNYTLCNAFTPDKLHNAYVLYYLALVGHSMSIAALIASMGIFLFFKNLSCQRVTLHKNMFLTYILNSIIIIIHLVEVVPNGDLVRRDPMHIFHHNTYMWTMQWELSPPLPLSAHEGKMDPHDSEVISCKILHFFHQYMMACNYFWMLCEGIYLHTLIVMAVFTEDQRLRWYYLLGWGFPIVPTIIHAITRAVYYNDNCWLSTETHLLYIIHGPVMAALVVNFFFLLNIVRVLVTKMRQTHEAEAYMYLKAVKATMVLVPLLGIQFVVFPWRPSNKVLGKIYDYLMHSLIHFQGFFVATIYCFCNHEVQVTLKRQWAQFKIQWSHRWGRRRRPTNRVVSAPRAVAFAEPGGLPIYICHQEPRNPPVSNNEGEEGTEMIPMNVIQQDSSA
# T1 sequence (Q9JJ73 23-147 partner): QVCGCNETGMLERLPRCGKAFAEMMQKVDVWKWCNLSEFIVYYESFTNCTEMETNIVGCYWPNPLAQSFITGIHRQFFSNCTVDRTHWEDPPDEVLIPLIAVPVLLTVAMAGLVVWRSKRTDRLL
# Protocol: (§1) The functional activities of lipidated pramlintide analogue peptides, such as cAMP production, were tested in 1321N1 cell line with stable recombinant expression of human calcitonin receptor (hCTR) or human amylin receptor (calcitonin receptor co-expressed with receptor activity modifying protein, RAMP3) (hAMYR3) or HEK cells with stable recombinant expression of rat calcitonin receptor (rat CTR) or rat amylin receptor (calcitonin receptor co-expressed with receptor activity modifying protein, RAMP3) (Rat AMYR3).
# (§2) Cryopreserved cell stock was thawed rapidly in a water-bath, suspended in assay buffer (0.1% BSA (Sigma # A3059) in HBSS (Sigma # H8264) with 25 mM HEPES, pH 7.4 and containing 0.5 mM IB MX (Sigma# 17018)) and spun at 240×g for 5 minutes. Cells were re-suspended in assay buffer at a batch-dependent optimized concentration (e.g. hCTR cells at 0.125×10^5 cells/mL, hAMYR3 cells at 0.125×10^5 cells/mL, rat CTR cells at 1x10^5 cells/mL, rat AMYR3 at 2×10^5 cells/mL).
# (§3) The test peptide stock was prepared in DMSO and diluted in assay buffer to reach stated concentrations and transferred in duplicates into a 384-black shallow well microtitre assay plate (Corning # 3676). Cells were added to the assay plate, incubated at room temperature for 30 minutes and the cAMP level measured using cAMP dynamic 2 HTRF kit (Cisbio, Cat # 62AM4PEJ), following the two step protocol as per manufacturer's recommendations. The plates were read on an Envision (Perkin Elmer) using excitation wavelength of 320 nm and emission wavelengths of 620nm & 665 nm.
# (§4) Data was transformed to % Delta F as described in the manufacturer's guidelines and analyzed as percent activation of maximal amylin or calcitonin effect by 4-parameter logistic fit to determine EC50 values. The selectivity of a peptide to hAMYR vs hCTR is defined as a ratio of EC50 values at the two receptors.
# [2] = target: T2, rat calcitonin receptor (rat CTR) (Rattus norvegicus, UniProt P32214); test: cAMP production in HEK cells with stable recombinant expression of rat calcitonin receptor (rat CTR); type: cell-based; conditions: assay buffer with 0.1% BSA
# T2 construct: expressed in transfected cells
# T2 sequence (P32214 25-516): T1 sequence (P32214 25-516)
# Protocol: as §1, §2, §3, §4
# [3] = Pharmacokinetic determination via IV and SC administration in Sprague Dawley rats; conditions: male, rat, plasma, 20 nmol/kg
# [4] = test system: lean rats; test: Rat acute food intake study; type: in vivo; conditions: lean male Sprague Dawley rats, 20 nmol/kg subcutaneously
# Protocol: Male Sprague Dawley rats were obtained from Taconic Denmark, ApS at approximately 7 weeks of age. Rats were implanted with a microchip for identification, housed 4/cage with enrichment, free access to food and water, and allowed one week acclimatisation while non-invasive characterization was performed. Rats were on a 12:12 light:dark cycle that switches at 1pm:1am. Food intake was monitored via the HM2 system (Lafayette Instrument) that allows for monitoring in a home cage. As each rat enters an access tunnel to feed, an IR beam is broken, and the implanted microchip is read. Resulting changes to food weight is then assigned to the specific animal. Social order has shown no impact to overall feeding patterns and amounts.
# Rats were sorted into groups based on Day -1 body weight and 24-hour accumulated food intake (n=7 per group). On Day 0 rats were weighed, then fasted for 6 hours. Thirty (30) minutes prior to the reintroduction of food, rats were dosed subcutaneously (5 mL/kg) with 20 nmol/kg of test compound or 60 nmol/kg peptide 1 (pramlintide) diluted in an appropriate vehicle, after which food was returned, and lights went out. Automated food intake was monitored for the following 3 days, and rats were weighed once per day.
# Food intake per rat was batched into 1-hour intervals and integrated into Gubra's GubraView data management system. Discrete food intake data was exported into MS Excel from which cumulative food intake data was generated. Cumulative food intake data was then transposed into GraphPad Prism (v8.0.1) for analysis of dark period feeding
# [5] = target: T3, human calcitonin receptor (hCTR) (Homo sapiens, UniProt P30988); test: cAMP production in 1321N1 cells with stable recombinant expression of human calcitonin receptor (hCTR); type: cell-based; conditions: cAMP, 1321N1 cells, assay buffer with 0.1% BSA; read-out: EC50 (pM) hCTR
# T3 construct: expressed in transfected cells
# T3 sequence (P30988 25-474): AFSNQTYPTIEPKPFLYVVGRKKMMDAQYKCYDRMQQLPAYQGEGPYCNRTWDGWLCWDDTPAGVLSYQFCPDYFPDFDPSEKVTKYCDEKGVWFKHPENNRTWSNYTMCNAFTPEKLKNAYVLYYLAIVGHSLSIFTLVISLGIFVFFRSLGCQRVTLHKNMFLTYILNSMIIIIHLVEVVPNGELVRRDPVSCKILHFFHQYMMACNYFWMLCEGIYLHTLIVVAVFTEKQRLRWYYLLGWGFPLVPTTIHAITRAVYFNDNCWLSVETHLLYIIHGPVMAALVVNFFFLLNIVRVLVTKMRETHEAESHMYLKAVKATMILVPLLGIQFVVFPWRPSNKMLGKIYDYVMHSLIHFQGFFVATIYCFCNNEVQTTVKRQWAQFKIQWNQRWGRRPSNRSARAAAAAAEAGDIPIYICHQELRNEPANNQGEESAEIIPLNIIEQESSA
# Method in brief: (§5)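 EC50 values come from 4-parameter logistic fits of HTRF cAMP signal, normalised to maximal calcitonin or amylin effect. Peptides were tested in duplicate for 30 min at RT in IBMX-containing (0.5 mM) BSA/HEPES buffer pH 7.4 on stable 1321N1 (human CTR, AMYR3) or HEK (rat CTR, AMYR3) lines.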
# [6] = target: T4, human amylin receptor (calcitonin receptor co-expressed with receptor activity modifying protein, RAMP3) (hAMYR3) (Homo sapiens, UniProt O60896+P30988); test: cAMP production in 1321N1 cells with stable recombinant expression of human amylin receptor (hAMYR3); type: cell-based; conditions: for Ratio (selectivity hAMYR vs hCTR, ratio of EC50 values at the two receptors): EC50 hCTR / EC50 hAMYR3; for EC50: cAMP, 1321N1 cells, assay buffer with 0.1% BSA, read-out: EC50 (pM) hAMYR3
# T4 construct: expressed in transfected cells
# T4 sequence (P30988 25-474): T3 sequence (P30988 25-474)
# T4 sequence (O60896 24-148 partner): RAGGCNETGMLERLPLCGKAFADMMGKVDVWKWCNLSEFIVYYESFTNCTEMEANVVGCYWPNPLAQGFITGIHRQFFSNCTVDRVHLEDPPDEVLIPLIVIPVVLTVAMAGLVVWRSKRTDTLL
# Method in brief: as §5
EC50 [1] [pM],EC50 [2] [pM],half-life ([3]; iv) [h],half-life ([3]; sc) [h],EC50 [5] [pM],"Ratio (selectivity hAMYR vs hCTR, ratio of EC50 values at the two receptors) [6]",EC50 [6] [pM],Structure (SMILES),Cummulative food intake (% vehicle treated intake) At 12 h [4] [% vehicle treated intake],Cummulative food intake (% vehicle treated intake) At 24 h [4] [% vehicle treated intake],Cummulative food intake (% vehicle treated intake) At 48 h [4] [% vehicle treated intake]
14.5,3650,9.3,10,19000,29,647,"CC[C@H](C)[C@H](NC(=O)[C@@H]1CCCN1C(=O)CNC(=O)[C@H](Cc1ccccc1)NC(=O)[C@H](CC(N)=O)NC(=O)C(C)(C)NC(=O)[C@H](CO)NC(=O)[C@H](CO)NC(=O)[C@H](Cc1c[nH]cn1)NC(=O)[C@H](CCCNC(=N)N)NC(=O)[C@H](CC(C)C)NC(=O)[C@H](Cc1ccccc1)NC(=O)[C@H](CC(N)=O)NC(=O)[C@H](C)NC(=O)[C@H](CC(C)C)NC(=O)[C@H](CCCNC(=N)N)NC(=O)[C@H](CCC(N)=O)NC(=O)[C@@H](NC(=O)[C@H](C)NC(=O)[C@@H]1CSSC[C@H](NC(=O)[C@H](CCCCN)NC(=O)[C@@H](N)CCCCNC(=O)CC[C@H](NC(=O)CCCCCCCCCCCCCCCCC(=O)O)C(=O)O)C(=O)N[C@@H](CC(N)=O)C(=O)N[C@@H]([C@@H](C)O)C(=O)N[C@@H](C)C(=O)N[C@@H]([C@@H](C)O)C(=O)N1)[C@@H](C)O)C(=O)N[C@@H](CC(C)C)C(=O)N1CCC[C@H]1C(=O)N1CCC[C@H]1C(=O)N[C@H](C(=O)N[C@@H](CCC(=O)O)C(=O)N[C@H](C(=O)NCC(=O)N[C@@H](CO)C(=O)N[C@@H](CC(N)=O)C(=O)N[C@H](C(=O)N[C@@H](Cc1ccc(O)cc1)C(N)=O)[C@@H](C)O)C(C)C)[C@@H](C)O [Peptide 43, K(γE-C18diacid)K[CNTATC]ATQRLANFLRHSS(Aib)NFGPILPPTEVGSNTY-amide] (H-K([γGlu-C18 diacid])KCNTATCATQRLANFLRHSS[Aib]NFGPILPPTEVGSNTY-NH2; disulfide 3-8; N-terminus assumed)",60.8,55.6,46.6
19.5,1220,10.6,12.9,6050,9.2,656,CC[C@H](C)[C@H](NC(=O)[C@@H]1CCCN1C(=O)CNC(=O)[C@H](Cc1ccccc1)NC(=O)[C@H](CC(N)=O)NC(=O)[C@H](CC(N)=O)NC(=O)[C@H](CO)NC(=O)[C@H](CO)NC(=O)[C@H](Cc1c[nH]cn1)NC(=O)C(C)(C)NC(=O)[C@H](CC(C)C)NC(=O)[C@H](Cc1ccccc1)NC(=O)[C@H](CC(N)=O)NC(=O)[C@H](C)NC(=O)[C@H](CC(C)C)NC(=O)[C@H](CCCNC(=N)N)NC(=O)[C@H](CCC(N)=O)NC(=O)[C@@H](NC(=O)[C@H](C)NC(=O)[C@@H]1CSSC[C@H](NC(=O)[C@H](CCCCN)NC(=O)[C@@H](N)CCCCNC(=O)CC[C@H](NC(=O)CCCCCCCCCCCCCCCCC(=O)O)C(=O)O)C(=O)N[C@@H](CC(N)=O)C(=O)N[C@@H]([C@@H](C)O)C(=O)N[C@@H](C)C(=O)N[C@@H]([C@@H](C)O)C(=O)N1)[C@@H](C)O)C(=O)N[C@@H](CC(C)C)C(=O)N1CCC[C@H]1C(=O)N1CCC[C@H]1C(=O)N[C@H](C(=O)N[C@@H](CCC(=O)O)C(=O)N[C@H](C(=O)NCC(=O)N[C@@H](CO)C(=O)N[C@@H](CC(N)=O)C(=O)N[C@H](C(=O)N[C@@H](Cc1ccc(O)cc1)C(N)=O)[C@@H](C)O)C(C)C)[C@@H](C)O [Peptide 140] (H-K([γGlu-C18 diacid])KCNTATCATQRLANFL[Aib]HSSNNFGPILPPTEVGSNTY-NH2; disulfide 3-8; N-terminus assumed),62.4,54.4,56.5
